Where a name gives a salt, the structure may show the parent alone.

Data set [1] addresses T1, HEV helicase (Hepatitis E virus genotype 1, UniProt P33424).
T1 construct: The HEV helicase (735 bp) was amplified from the HEV (genotype 1; AF444002.1) cDNA clone; made in house; host or cells: E. coli BL21(DE3), pET28a; solubilised from inclusion bodies with NLS
The data set can be described thus: biochemical. The data set is classed as biochemical. An excerpt: (§1) The HEV helicase (735 bp) was amplified from the HEV (genotype 1; accession no. AF444002.1) cDNA clone pSK-HEV-2[23]^,[25] using the forward and reverse primers sets (5′agcc|atatgggttgccgtgtgacc3′ and 5′gtgc|tcgagttaaaagaagttgttcac3′). Following standard laboratory procedures, the amplified gene was cloned in the pET28a vector between NdeI and Xho I restriction sites. The cloning was verified using colony PCR using Nde I and Xho I (New England BioLabs, Ipswich, MA) double digestion and DNA sequencing. The recombinant plasmid was further transformed to BL21(DE3) using the routine protocol for expressing HEV helicase. The transformed recombinant BL21 cells were expanded until the culture’s optical density (OD600 nm) reached 0.6 before being induced with 0.4 mM IPTG (Sigma Aldrich, St. Louis, MO) at 26 °C for 4 h. The protein solubilisation was carried out as described previously. The Immobilised Metal Affinity Chromatography (IMAC) was used to purify the solubilised protein, and the protein was eluted in a buffer containing 10 mM Tris–Cl (pH 8.0), (Sigma Aldrich), 100 mM NaCl (Sigma Aldrich), 250 mM imidazole, and 0.1% N-lauryl Sarcosine (NLS; Sigma Aldrich). Further, the buffer of purified protein was exchanged with 10 mM Tris–Cl (pH 8.0), 100 mM NaCl, and 0.08% NLS before proceeding with enzyme assays.
The NTPase activity of the HEV helicase enzyme was performed using a colorimetric-based Malachite green test[27]. The assay followed the manufacturer’s instructions The malachite green assay was performed as per the manufacturer’s protocol (Sigma Aldrich) cat no MAK307-1KT. The assay operates on the phosphate release from the reaction between malachite green and molybdate (AM/MG reagent) as the basis for complexation. […] The absorbance was measured on plate reader and a standard curve was generated using known concentrations of phosphate ranging from 0 to 44 uM to correlate absorbance with released phosphate concentration. The absorbance was plotted on Y-axis against the phosphate concentration on X-axis, and a straight-line equation (Y = 0.02182 * X + 0.04158) was determined using linear regression in GraphPad Prism version 9.0 (Boston, MA). The graphs were plotted as a function of the concentration of phosphate released. The effects of pH, temperature, enzyme concentration, and substrate concentration on helicase enzyme activity were studied to optimise enzyme activity.
Based on their docking score, hydrogen bonds, and protein–ligand interaction, the five selected compounds from virtual screening were tested for their ability to suppress NTPase activity. The putative inhibitors’ concentrations ranged from 0 to 10 µM during the optimisation-focused inhibition tests on the purified protein’s NTPase activity. […] The working reagent was added after the reaction mixture had been incubated at RT for 10 min, and the absorbance was measured at 600 nm.
(§2) All the experiments were performed in triplicates, and the graphs were plotted using GraphPad Prism software (Boston, MA).

For data set [2], the target named is T1, HEV helicase. The data set can be described thus: Double-stranded RNA unwinding activity / inhibition assay (fluorescence). The format is biochemical. The following applies: dsRNA unwinding, purified helicase, RT.
From the text: as §1, §2

The subject of data set [3] is p6 HEV-Luc Replicon. The data set can be described thus: HEV replicon (p6 HEV-Luc) luciferase assay in Huh7 cells. The format is cell-based. Particulars: Hepatitis E virus, Huh-7, 72 h, read-out: IC50 HEV replicon luciferase activity. An excerpt: (§3) For transfection, pSHEV-3 (cDNA clone of HEV genotype 3; accession no. AY575859.1) was linearised using Xba I (New England BioLabs). The helicase region of GT1 and GT3 share greater than 90% sequence homology Sub-genomic HEV carrying luciferase gene (accession number JQ679013) was linearised for replicon assay with MluI. The linearised DNA was subjected to in vitro transcription, as mentioned previously[26]^,[36], and the RNA was transfected in Huh7 cells using Lipofectamine 3000 (Invitrogen, Carlsbad, CA). Briefly, a day before transfection, approximately 0.8 × 10^6 cells were seeded in each well of a six-well plate, and for HEV replicon assay, ∼5–7 × 10[3] cells were seeded in each well of 96 plate. After 24 h, the media was removed, the cells were washed twice with Opti-MEM media (Gibco™, Grand Island, NY), and the transfection mixture was prepared as mentioned earlier[25]^,[26]. The cells were incubated with a transfection mixture for 6–8 h at 37 °C.
Following transfection, the cells were incubated with inhibitors for 72 h at 37 °C in a CO2 incubator. […] The cells were then lysed according to the manufacturer’s protocol, and the luminescence was recorded on Tecan Spark® (Tecan Trading AG, Switzerland) multimode plate reader. In replicon, the luminescence was normalised w.r.t to uninfected (0%) and untreated cells (100%).
A general note: In antiviral work, replicon cells carry a viral genome segment that copies itself.

In data set [4] the test system is Huh7 cells. Here is the method: To study the cell viability, Huh7 cells were grown in Dulbecco’s Modified Eagle Medium (DMEM, Gibco™, Life Technologies, Grand Island, NY), supplemented with 10% Foetal Bovine Serum (FBS, Gibco™, Qualified, Brazil origin). Further, Huh7 cells were seeded in a 96-well plate (∼0.7 × 10^4 cells/well) and incubated at 37 °C in a humidified 5% CO2 incubator. […] After 4 d, the MTT (3-dimethylthiazol-2-yl-diphenyl tetrazolium bromide) assay was performed per the manufacturer’s protocol (Himedia Laboratories, Thane, India). Cell viability percentage was calculated by comparing treated cells with untreated cells.

For data set [5], the system named is HEV replication (ORF2 expression). The data set can be described thus: microbe, parasite or virus in culture. The data set is classed as cell-based, Hepatitis E Virus.
From the text: as §3
For IFA, the cells were grown on a 96-well plate and transfected using Lipofectamine, as mentioned above. […] The cells were incubated for 4–5 d, and subsequently, the media was removed, and the cells were carefully washed twice with 1X PBS. The cells were fixed with 4% paraformaldehyde (PFA) and incubated for 5–10 min at RT. After fixing, the cells were again washed with 1× PBS, and the permeabilisation was performed using PBS with 0.1% Triton-X and 0.1% BSA (Bovine Serum Albumin, HiMedia, Mumbai, India). The blocking was performed using 3% BSA for 1 h at RT. After blocking, the cells were incubated with anti-HEV-ORF2 (Dilution, 1:400) antibody against the HEV capsid protein for 1 h at RT. The cells were washed thrice with PBS-T (Tween-20, 0.05%, Sigma Aldrich). The Goat-Anti-Rabbit Alexa Fluor 488 (Thermo Fisher) was used as a secondary antibody, and the cells were incubated for 30 min in the dark. The cells were washed thrice with PBS-T and stained with DAPI (Invitrogen™). […]

[6] abbreviates: read-out: IC50 (µM) NTPase activity.

T1 sequence (P33424 960-1204): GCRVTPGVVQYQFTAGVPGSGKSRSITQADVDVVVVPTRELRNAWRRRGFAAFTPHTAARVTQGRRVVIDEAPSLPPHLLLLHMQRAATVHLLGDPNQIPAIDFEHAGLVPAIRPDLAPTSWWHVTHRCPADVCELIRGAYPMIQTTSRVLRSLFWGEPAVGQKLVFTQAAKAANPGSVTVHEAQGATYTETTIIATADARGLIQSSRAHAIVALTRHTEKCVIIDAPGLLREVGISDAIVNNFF

As a reminder, the IC50 is the concentration that gives 50% inhibition. Regarding `O=C(O)c1cc(=O)c2c(OCC(O)COc3cccc4oc(C(=O)O)cc(=O)c34)cccc2o1` [Disodium cromoglycate, disodium cromoglycate], the IC50 in data set [1] (setting [6]) came out at 14.8 µM; in data set [2] it was 39.8 µM.
Taken in the same sequence, the figures for `COc1cccc2c1C(=O)c1c(O)c3c(c(O)c1C2=O)C[C@@](O)(C(C)=O)C[C@@H]3O[C@H]1C[C@H](N)[C@H](O)[C@H](C)O1` [Daunorubicin HCL, daunorubicin HCL] were 7.66 µM and 8.25 µM.
On to `C[C@]12C=CC(=O)C=C1CC[C@@H]1[C@@H]2[C@@H](O)C[C@@]2(C)[C@H]1CC[C@]2(O)C(=O)CO` [Prednisolone], for which the IC50 in data set [1] (setting [6]) was 4.2 µM; in data set [2], 25.8 µM.
`CN1c2c(nc(N)[nH]c2=O)NC[C@@H]1CNc1ccc(C(=O)N[C@@H](CCC(=O)O)C(=O)O)cc1` [Levomefolic acid, 5-methyltetrahydrofolate (levomefolic acid)]: the IC50 in data set [1] was 3.65 µM; in data set [2], 13.9 µM.
As usually defined, the inhibition is how much of the control response was suppressed. Turning to `CN(Cc1cnc2nc(N)nc(N)c2n1)c1ccc(C(=O)N[C@@H](CCC(=O)O)C(=O)O)cc1` [Methotrexate], the IC50 in data set [3] was determined as 0.0731 ± 0.0127 µM. Moreover, in data set [4], the “Cytotoxicity (MTT assay)” value is on record as below 100 nM. Further, the “HEV replication inhibition (IFA)” value in data set [5] (50 nM Mtx) is recorded as around 81%. In addition, the “fluorescence level (ORF2, IFA)” value in data set [5] (100 nM methotrexate, untreated 100%) was around 6%. Besides, the inhibition at 0.1 µM in data set [5] (Hepatitis E virus, Huh-7, read-out: inhibition of HEV replication (IFA)) was around 94%.
As a reminder, the Km is the substrate concentration at which the rate is half of its maximum. Regarding `Nc1nc2c(ncn2C2OC(COP(=O)(O)OP(=O)(O)OP(=O)(O)O)C(O)C2O)c(=O)[nH]1` (centres unmarked) [GTP], the Km in data set [1] (read-out: Km (substrate, NTPase activity), GTP 0 to […], Michaelis-Menten fit) is 350 µM.

These data come from paper PMC11003484 (Journal of Enzyme Inhibition and Medicinal Chemistry, 2023).
